From US5652335A, “Physiologically active substance well capable of permeating biomembrane” (Teikoku Seiyaku Kabushiki Kaisha, priority 1990, dated 1997)

How the values were obtained:
[1] = system: extirpated intestine of guinea pig; experiment: suppressing effect on shrinkage of extirpated intestine of guinea pig by electric stimulations (method of Kosterlitz); type: cell-based; details: for ED50 (mol) (mean ± s.e.m.): suppression of electrically stimulated shrinkage of extirpated guinea pig intestine, in vitro
Method: Adamantylated enkephalin derivatives a and b obtained in Examples 1 and 2 were examined for in vivo analgesic effect and in vitro suppressing effect to shrinkage of extirpated intestine of guinea pig by electric stimulations.
A suppressing effect for the shrinkage of extirpated intestine of guinea pig of the adamantylated enkephalin derivatives a and b was measured in accordance with the method of Kosterlitz (H. W. Kosterlitz, A. A. Watterfield, Ann. Rev. Pharmacol., 15, 29, (1975)).

mouse (dd-Y series) = experiment: in vivo analgesic activity by Randall Selitto method; details: subcutaneous administration to mouse, 1-50 mg/kg, in DMA: physiological saline (4:6); FIG. 2-5
Method: Adamantylated enkephalin derivatives a and b are subcutaneously administrated to a mouse, and an analgesic effect in the central nervous system was measured by Randall Selitto method. That is, the derivatives a and b were dissolved in a mixed solution of DMA: physiological saline solution (4:6) and about 100 μl of the solution was subcutaneously administrated to a mouse (dd-Y series: about 20 g) (1-50 mg/kg), and the analgesic effect was measured on every predetermined time interval after the administration by the Randall Selitto method.

Row | Compound | Relative Potency [1] | ED50 (mol) (mean ± s.e.m.) [1] | analgesic activity (mouse (dd-Y series)) | suppression for shrinkage, antagonism by naloxon ([1]; extirpated guinea pig intestine)
1 | CC(C)C[C@H](NC(=O)[C@H](Cc1ccccc1)NC(=O)CNC(=O)[C@@H](C)NC(=O)[C@@H](N)Cc1ccc(O)cc1)C(=O)O [[D-Ala^2] Leucine enkephalin, H-Tyr-D.Ala-Gly-Phe-Leu-OH, reference compound] | 0.89 | 3.6 ± 1.17 × 10^-8 mol | – | –
2 | H-Tyr-D.Ala-Gly-Phe-Leu-NH-Ada [Derivative b] | 2.13 | 1.5 ± 0.71 × 10^-8 mol | inferior to morphine hydrogen chloride but superior to the controls | showed suppression for shrinkage each of which was antagonized by naloxon
